Consider eleven compounds from patent US20260327244A1, “PYRIDO[4,3-D]PYRIMIDINE COMPOUNDS” (Pfizer Inc., priority 2022, published 2026).

Data set [1] addresses G12V KRAS (aa2-184) (Homo sapiens, UniProt P01116, G12V). Briefly: biochemical.
Description: (§3) SPR assay was used to measure the kinetic binding constant (KD) of Examples of the present invention.
(§4) The binding affinity and kinetics of Examples of the present invention were measured by Surface Plasmon Resonance (SPR) using Biacore 8K or 8K+ (Cytiva, Marlborough, MA) instruments. Recombinant, C-terminal site-specific biotinylated, wild-type (WT) KRAS (aa1-185), G12D KRAS (aa1-185), G12C KRAS (aa2-184), G12V KRAS (aa2-184), WT HRAS (aa2-184) and WT NRAS (aa2-185) proteins purified in presence of 1 μM GDP were used in these experiments. Binding measurements were performed parallelly in sets of either WT/G12D/G12C/G12V KRAS or WT K/H/N RAS proteins.
(§5) Biacore instrument was desorbed and docked with a Series S Sensor Chip SA. The proteins were diluted to 50 μg/mL with the assay buffer (50 mM HEPES, 150 mM NaCl, 10 μM GDP, 5 mM MgCl2, 0.5 mM TCEP, 5% glycerol, 0.02% Tween-20, 2% DMSO, pH 7.2) and immobilized at a flow rate of 3 μL/min at 10° C. with a contact time of 15 min. to capture ~3000-4000 RUs of proteins on the surface. The functionalized surface was then equilibrated with assay buffer for approximately 1 hour. Un-functionalized SA surfaces with no immobilized protein served as reference for binding kinetic analysis. Compound binding kinetics were measured in either multi-cycle or single-cycle kinetic format.
(§6) A 2-fold, 10-point serial dilution of test compounds was set-up in a 96-well microplate (Greiner; Cat #650101) with a top concentration of either 10 μM or 100 μM. Binding kinetics was measured at 10° C. by injecting serial dilution of compounds onto both reference and RAS immobilized channels at a flow rate of 100 μL/min and association time of 90 seconds. Compound dissociation was monitored for at least 400 seconds during each cycle. No additional regeneration was used. DMSO calibration curve was obtained before and after compound analysis by injecting 0-4% of DMSO in assay buffer. A suitable compound with known affinity and kinetics was tested once in every experiment as a positive control to assess activity of the captured protein on the surface.
(§7) A 3-fold, 6-point serial dilution of compounds was set-up in a deep 96-well microplate (Greiner Bio; Cat #780201) with the highest concentration of 1 μM (concentration range: 0.004-1 μM). Binding kinetics was measured at 10° C. by injecting serial dilutions of compounds in increasing order onto reference as well as RAS immobilized channels at a flow rate of 100 μL/min and association time of 120 seconds. Compound dissociation was monitored for at least 3600 seconds. Two buffer blanks were also run in a single-cycle kinetics format before the compound run for double referencing. No additional regeneration was used. DMSO calibration curve was obtained before and after compound analysis by injecting 0-4% of DMSO in the assay buffer. A suitable compound with known affinity and kinetics was tested once in every experiment as a positive control to assess activity of the captured protein on the surface.
(§8) Both MCK and SCK data were processed and analyzed using Biacore Insight evaluation software (Cytiva, Marlborough, MA)). […] The adequateness of the fit was judged by c^2 values and the randomness of residue distribution.
(§9) A geometric mean of binding constant KD was provided when an Example was tested more than once (n is testing replicate number).
In data set [2] the target is T1, WT NRAS (aa2-185) (Homo sapiens, UniProt P01111).
T1 construct: WT NRAS (aa2-185)
Put plainly: SPR binding assay, WT NRAS. The conditions noted are these: SPR at 10 °C, geometric mean when tested more than once. From the text:
(§1) No additional regeneration was used.
(§2) Compound dissociation was monitored for at least 3600 seconds. […] No additional regeneration was used.
For orientation: SPR reads the build-up and loss of mass on a sensor chip optically.

The target of data set [3] is G12C KRAS (aa2-184) (Homo sapiens, UniProt P01116, G12C). Put plainly: biochemical.
Description: as §3, §4, §5, §6, §7, §8, §9
The target in data set [4] is T2, WT HRAS (aa2-184) (Homo sapiens, UniProt P01112).
T2 construct: WT HRAS (aa2-184)
Briefly: SPR binding assay, WT HRAS. The conditions noted are these: SPR at 10 °C, geometric mean when tested more than once.
Description: as §1, §2

Data set [5] has as its target T3, wild-type (WT) KRAS (aa1-185) (Homo sapiens, UniProt P01116).
T3 construct: wild-type (WT) KRAS (aa1-185)
Put plainly: KRAS Surface Plasma Resonance (SPR) binding assay, WT KRAS. The note with it: SPR at 10 °C, geometric mean when tested more than once.
Description: as §1, §2

Data set [6] addresses G12D KRAS (aa1-185) (Homo sapiens, UniProt P01116, G12D). Briefly: biochemical.
Description: as §3, §4, §5, §6, §7, §8, §9
Data set [7] is described as follows: Mouse PK study, unbound plasma exposure of Example 33 after oral dosing of female NSG mice. Format: in vivo. As for the experimental part: FIG. 1 provides mouse PK study results showing unbound plasma concentrations of Example 33 in female NSG mouse plasma after oral dosing of female NSG Mice at 100 mg/kg (n=3, mean+/−SD). The solution of Example 33 was prepared using a Pluronic-based formulation [2.5% (w/v) Pluronic F-68 (Poloxamer 188)], and the suspension arms of both Example 33 and Example 34 were prepared using a 0.5% (w/v) methylcellulose formulation.
The solution formulation of Example 33 was an aqueous solution with 2.5% (w/v) Pluronic F-68 (Poloxamer 188). The amorphous suspension formulations of Example 33 and Example 34 were made using in 0.5% (w/v) methylcellulose in water.

pKd: −log10 of the molar value.

T1 sequence (P01111 2-185): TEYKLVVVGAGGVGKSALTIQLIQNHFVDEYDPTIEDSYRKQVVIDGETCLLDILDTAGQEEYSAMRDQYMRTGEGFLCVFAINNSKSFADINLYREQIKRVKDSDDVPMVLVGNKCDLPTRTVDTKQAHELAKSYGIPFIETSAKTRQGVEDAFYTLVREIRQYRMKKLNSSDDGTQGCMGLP
Sequence of G12V KRAS (aa2-184) (P01116 2-184 isoform P01116-2 G12V): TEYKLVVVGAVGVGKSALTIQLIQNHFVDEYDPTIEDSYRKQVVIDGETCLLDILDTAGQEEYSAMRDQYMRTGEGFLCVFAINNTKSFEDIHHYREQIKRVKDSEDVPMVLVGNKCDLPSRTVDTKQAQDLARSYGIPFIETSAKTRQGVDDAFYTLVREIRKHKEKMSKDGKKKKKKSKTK
T3 sequence (P01116 1-185 isoform P01116-2): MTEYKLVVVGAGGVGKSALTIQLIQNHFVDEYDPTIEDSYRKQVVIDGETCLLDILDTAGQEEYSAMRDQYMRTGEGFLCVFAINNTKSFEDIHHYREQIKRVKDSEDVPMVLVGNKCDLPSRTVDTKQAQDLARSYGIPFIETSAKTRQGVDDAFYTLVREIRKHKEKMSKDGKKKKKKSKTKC
T2 sequence (P01112 2-184): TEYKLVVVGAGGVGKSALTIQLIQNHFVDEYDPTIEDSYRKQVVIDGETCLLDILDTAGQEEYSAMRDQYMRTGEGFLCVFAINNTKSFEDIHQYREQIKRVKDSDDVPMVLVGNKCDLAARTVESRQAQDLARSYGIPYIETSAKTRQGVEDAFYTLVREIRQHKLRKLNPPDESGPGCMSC
Sequence of G12D KRAS (aa1-185) (P01116 1-185 isoform P01116-2 G12D): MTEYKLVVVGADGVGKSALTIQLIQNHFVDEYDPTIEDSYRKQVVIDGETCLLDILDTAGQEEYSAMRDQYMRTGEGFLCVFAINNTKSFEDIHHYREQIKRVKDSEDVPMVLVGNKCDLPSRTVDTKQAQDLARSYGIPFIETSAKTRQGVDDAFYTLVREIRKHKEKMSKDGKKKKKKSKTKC
Sequence of G12C KRAS (aa2-184) (P01116 2-184 isoform P01116-2 G12C): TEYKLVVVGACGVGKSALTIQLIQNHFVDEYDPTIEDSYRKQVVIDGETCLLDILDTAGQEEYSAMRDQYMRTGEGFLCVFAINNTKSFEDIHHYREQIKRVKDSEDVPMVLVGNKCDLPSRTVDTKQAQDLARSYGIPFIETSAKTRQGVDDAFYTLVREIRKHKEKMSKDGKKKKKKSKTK

In the case of `C#Cc1cccc2cc(O)cc(-c3ncc4c(N5CC[C@H](CC#N)C5)nc(OC[C@@]56CCCN5C[C@H](F)C6)nc4c3F)c12` [Example 3, {(3R)-1-[7-(8-ethynyl-3-hydroxynaphthalen-1-yl)-8-fluoro-2-{[(2R,7aS)-2-fluorotetrahydro-1H-pyrrolizin-7a(5H)-yl]methoxy}pyrido[4,3-d]pyrimidin-4-yl]pyrrolidin-3-yl}acetonitrile], the pKd (commonly the Kd on a negative log10 scale, so that one unit is a factor of ten) in data set [1] is 7.97; in data set [2], < 5.00; in data set [3], 7.96; in data set [4], < 5.00; in data set [5], 8.32; in data set [6], 7.91.
Turning to `C#Cc1c(F)ccc2cc(O)cc(-c3ncc4c(N5C[C@@H]6C[C@H](C5)[C@H](O)C6)nc(OC[C@@]56CCCN5C[C@H](F)C6)nc4c3F)c12` [Example 10, (1R,5R,6R)-3-[7-(8-ethynyl-7-fluoro-3-hydroxynaphthalen-1-yl)-8-fluoro-2-{[(2R,7aS)-2-fluorotetrahydro-1H-pyrrolizin-7a(5H)-yl]methoxy}pyrido[4,3-d]pyrimidin-4-yl]-3-azabicyclo[3.2.1]octan-6-ol], the negative-log Kd (pKd) was 8.31 in data set [1]; 6.46 in data set [2]; 9.17 in data set [3]; 7.15 in data set [4]; 10.52 in data set [5]; 9.53 in data set [6].
Take `N#CC[C@@H]1CCCN(c2nc(OC[C@@]34CCCN3C[C@H](F)C4)nc3c(F)c(-c4cc(O)cc5ccc(F)c(F)c45)ncc23)C1` [Example 12, {(3S)-1-[7-(7,8-difluoro-3-hydroxynaphthalen-1-yl)-8-fluoro-2-{[(2R,7aS)-2-fluorotetrahydro-1H-pyrrolizin-7a(5H)-yl]methoxy}pyrido[4,3-d]pyrimidin-4-yl]piperidin-3-yl}acetonitrile]: the negative-log Kd (pKd) in data set [1] is 9.93; in data set [2], 6.00; in data set [3], 8.95; in data set [4], 6.22; in data set [5], 10.66; in data set [6] it was 10.35.
For the compound `CC(=O)N1CCN(c2nc(OC[C@@]34CCCN3C[C@H](F)C4)nc3c(F)c(-c4cc(O)cc5ccc(F)c(F)c45)ncc23)C[C@@H]1CC#N` [Example 13, {(2S)-1-acetyl-4-[7-(7,8-difluoro-3-hydroxynaphthalen-1-yl)-8-fluoro-2-{[(2R,7aS)-2-fluorotetrahydro-1H-pyrrolizin-7a(5H)-yl]methoxy}pyrido[4,3-d]pyrimidin-4-yl]piperazin-2-yl}acetonitrile], the pKd was 7.98 in data set [1]; < 5.00 in data set [2]; 8.12 in data set [3]; 5.05 in data set [4]; 8.90 in data set [5]; 7.22 in data set [6].
Take `C#Cc1c(F)ccc2cc(O)cc(-c3nc4c5c(nc(OC[C@@]67CCCN6C[C@H](F)C7)nc5c3F)N3CCCC[C@H]3CO4)c12` [Example 23, 5-ethynyl-6-fluoro-4-[(8aS)-4-fluoro-2-{[(2R,7aS)-2-fluorotetrahydro-1H-pyrrolizin-7a(5H)-yl]methoxy}-8,8a,9,10,11,12-hexahydro-7-oxa-1,3,6,12a-tetraazabenzo[4,5]cyclohepta[1,2,3-de]naphthalen-5-yl]naphthalen-2-ol]: the pKd in data set [4] was 6.33.
For the compound `C#Cc1c(F)ccc2cc(O)cc(-c3nc4c5c(nc(OC[C@@]67CCCN6C[C@H](F)C7)nc5c3F)N(CCO)CCO4)c12` [Example 26, 5-ethynyl-6-fluoro-4-[4-fluoro-2-{[(2R,7aS)-2-fluorotetrahydro-1H-pyrrolizin-7a(5H)-yl]methoxy}-10-(2-hydroxyethyl)-9,10-dihydro-8H-7-oxa-1,3,6,10-tetraazacyclohepta[1,2,3-de]naphthalen-5-yl]naphthalen-2-ol], the pKd was 9.93 in data set [1], 10.51 in data set [3], 10.85 in data set [5] and 10.34 in data set [6].
Take `C#Cc1c(F)ccc2cc(O)cc(-c3nc4c5c(nc(OC[C@@]67CCCN6C[C@H](F)C7)nc5c3F)N3CCC[C@@H](O)[C@H]3CO4)c12` [Example 28, (8aR,9R)-5-(8-ethynyl-7-fluoro-3-hydroxynaphthalen-1-yl)-4-fluoro-2-{[(2R,7aS)-2-fluorotetrahydro-1H-pyrrolizin-7a(5H)-yl]methoxy}-8,8a,9,10,11,12-hexahydro-7-oxa-1,3,6,12a-tetraazabenzo[4,5]cyclohepta[1,2,3-de]naphthalen-9-ol]: the pKd in data set [1] is 10.55; in data set [3] it was 10.19; in data set [5] it was 10.21; in data set [6], 10.52.
With `C#Cc1c(F)ccc2cccc(-c3nc4c5c(nc(OC[C@@]67CCCN6C[C@H](F)C7)nc5c3F)N3CCCC[C@H]3CO4)c12` [Example 29, (8aS)-5-(8-ethynyl-7-fluoronaphthalen-1-yl)-4-fluoro-2-{[(2R,7aS)-2-fluorotetrahydro-1H-pyrrolizin-7a(5H)-yl]methoxy}-8,8a,9,10,11,12-hexahydro-7-oxa-1,3,6,12a-tetraazabenzo[4,5]cyclohepta[1,2,3-de]naphthalene], the pKd in data set [1] was 8.83; in data set [3] it was 8.44; in data set [5], 8.24; in data set [6] it was 8.81.
Taken in the same sequence, the figures for `C#Cc1c(F)ccc2cccc(-c3nc4c5c(nc(OC[C@@]67CCCN6C[C@H](F)C7)nc5c3F)N3C[C@@H](O)CC[C@H]3CO4)c12` [Example 30, (8aS,11S)-5-(8-ethynyl-7-fluoronaphthalen-1-yl)-4-fluoro-2-{[(2R,7aS)-2-fluorotetrahydro-1H-pyrrolizin-7a(5H)-yl]methoxy}-8,8a,9,10,11,12-hexahydro-7-oxa-1,3,6,12a-tetraazabenzo[4,5]cyclohepta[1,2,3-de]naphthalen-11-ol] were 9.62, 8.96, 8.59 and 9.60.
As for `C#Cc1c(F)c(F)cc2cc(O)cc(-c3nc4c5c(nc(OC[C@@]67CCCN6C[C@H](F)C7)nc5c3F)N3CCCC[C@H]3CO4)c12` [Example 32, 5-ethynyl-6,7-difluoro-4-[(8aS)-4-fluoro-2-{[(2R,7aS)-2-fluorotetrahydro-1H-pyrrolizin-7a(5H)-yl]methoxy}-8,8a,9,10,11,12-hexahydro-7-oxa-1,3,6,12a-tetraazabenzo[4,5]cyclohepta[1,2,3-de]naphthalen-5-yl]naphthalen-2-ol], the negative logarithm of the Kd (pKd) in data set [1] is 11.40; in data set [3] it was 11.40; in data set [5], 11.05; in data set [6] it was 11.40.
For the compound `C#Cc1c(F)ccc2cc(OCOP(=O)(O)O)cc(-c3nc4c5c(nc(OC[C@@]67CCCN6C[C@H](F)C7)nc5c3F)N3CCCOC[C@H]3CO4)c12` [Example 34, ({5-ethynyl-6-fluoro-4-[(8aS)-4-fluoro-2-{[(2R,7aS)-2-fluorotetrahydro-1H-pyrrolizin-7a(5H)-yl]methoxy}-8a,9,12,13-tetrahydro-8H,11H-7,10-dioxa-1,3,6,13a-tetraazanaphtho[1,8-ab]heptalen-5-yl]naphthalen-2-yl}oxy)methyl dihydrogen phosphate], the “Cav Fold Increase” value in data set [7] (suspension, relative to Example 33 suspension, 100 mg (active)/kg oral) was 10.4. Moreover, in data set [7] (unbound Example 33 in plasma, suspension (0.5% methylcellulose), single oral dose 100 mg (active)/kg), the “Cav, ss, u” value is listed as 3.84 nM.
